Experimental data: patent US9380783B2, “Herbicidal composition” (priority 2012, dated 2016)

Columns and labels:
Format in all cases: in vivo
[1] = tested on: velvetleaf (Abutilon theophrasti Medic.); assay: Test Example 11: foliar treatment, velvetleaf pot test; settings: read-out: Growth inhibition rate of velvetleaf (%) Measured value
Experimental: Upland field soil was put into a 1/1,000,000 ha pot, and seeds of velvetleaf (Abutilon theophrasti Medic.) were sown. When the velvetleaf reached 5.0 to 5.3-leaf stage, predetermined amounts of the above formations respectively containing nicosulfuron, prosulfuron, dicamba, bromoxynil-octanoate and bicyclopyrone were diluted with water (in an amount corresponding to 300 L/ha) and applied for foliar treatment by a small sprayer.

[2] = tested on: prickly sida (Sida spinosa L.); assay: Test Example 4: soil treatment, prickly sida pot test; settings: read-out: Growth inhibition rate of prickly sida (%) Measured value
Experimental: (§1) Upland field soil was put into a 1/300,000 ha pot, and seeds of prickly sida (Sida spinosa L.) were sown. On the next day, predetermined amounts of the above formulations respectively containing nicosulfuron, prosulfuron, dicamba and bicyclopyrone were diluted with water (in an amount corresponding to 1,000 L/ha) and applied for soil treatment by a small sprayer.

[3] = tested on: korean lespedeza (Kummerowia stipulacea (Maxim.) Makino); assay: Test Example 8: soil treatment, korean lespedeza pot test; settings: read-out: Growth inhibition rate of korean lespedeza (%) Measured Value
Experimental: as §1, with “korean lespedeza (Kummerowia stipulacea (Maxim.) Makino)” for “prickly sida (Sida spinosa L.)”, “prosulfuron” for “prosulfuron, dicamba”

[4] = tested on: ivy-leaved morningglory (Ipomoea hederacea (L.) Jacq.); assay: Test Example 7: soil treatment, ivy-leaved morningglory pot test; settings: read-out: Growth inhibition rate of ivy-leaved morningglory (%) Measured value
Experimental: as §1, with “ivy-leaved morningglory (Ipomoea hederacea (L.) Jacq.)” for “prickly sida (Sida spinosa L.)”, “prosulfuron” for “prosulfuron, dicamba”

[5] = tested on: annual ragweed (Ambrosia artemisiifolia L.); assay: Test Example 9: foliar treatment, annual ragweed pot test; settings: foliar treatment at 6.0 to 8.0-leaf stage, 14th day after treatment, read-out: Growth inhibition rate of annual ragweed (%) Measured value
Experimental: (§2) Upland field soil was put into a 1/1,000,000 ha pot, and seeds of annual ragweed (Ambrosia artemisiifolia L.) were sown. When the annual ragweed reached 6.0 to 8.0-leaf stage, predetermined amounts of the above formulations respectively containing nicosulfuron, prosulfuron and mesotrione were diluted with water (in an amount corresponding to 300 L/ha) and applied for foliar treatment by a small sprayer.
On the 14th day after treatment, the state of growth of the annual ragweed was visually observed to determine the growth inhibition rate (%). The growth inhibition rate (%) (measured value) and the growth inhibition rate (%) calculated in the same manner as in the above Test Example 1 are shown in Table 9.

[6] = tested on: common lespedeza (Lespedeza striata (Thunb.) Hook. et Arn.); assay: Test Example 10: foliar treatment, common lespedeza pot test; settings: Kummerowia striata, foliar treatment at 4.0-leaf stage, 14th day after treatment, read-out: Growth inhibition rate of common lespedeza (%) Measured value
Experimental: as §2, with “common lespedeza (Lespedeza striata (Thunb.) Hook. et Arn.)” for “annual ragweed (Ambrosia artemisiifolia L.)”, “common lespedeza” for “annual ragweed”, “4.0-leaf” for “6.0 to 8.0-leaf”, “dicamba” for “mesotrione”

[7] = tested on: wild oat (Avena fatua L.); assay: Test Example 3: soil treatment, wild oat pot test; settings: 28th day after treatment, read-out: Growth inhibition rate of wild oat (%) Measured value
Text: (§3) Upland field soil was put into a 1/300,000 ha pot, and seeds of wild oat (Avena fatua L.) were sown. […] On the 28th day after treatment, the state of growth of the wild oat was visually observed to determine the growth inhibition rate (%).

[8] = tested on: sunn-hemp (Crotalaria juncea L.); assay: Test Example 1: soil treatment, sunn-hemp pot test; settings: 28th day after treatment, read-out: Growth inhibition rate of sunn-hemp (%) Measured value
Text: On the 28th day after treatment, the state of growth of the sunn-hemp was visually observed to determine the growth inhibition rate (%) in accordance with the following evaluation standard. The growth inhibition rate (%) (measured value) and the growth inhibition rate (%) (calculated value) calculated by the Colby's formula are shown in Table 1.

[9] = tested on: annual ragweed (Ambrosia artemisiifolia L.); assay: Test Example 6: soil treatment, annual ragweed pot test; settings: 28th day after treatment, read-out: Growth inhibition rate of annual ragweed (%) Measured value
Experimental: as §1, with “annual ragweed (Ambrosia artemisiifolia” for “prickly sida (Sida spinosa”, “prosulfuron” for “prosulfuron, dicamba”, “bromoxynil-octanoate” for “bicyclopyrone”

[10] = tested on: wild oat (Avena fatua L.); assay: Test Example 2: soil treatment, wild oat pot test; settings: 28th day after treatment, read-out: Growth inhibition rate of wild oat (%) Measured value
Text: as §3

[11] = tested on: black nightshade (Solanum nigrum L.); assay: Test Example 5: soil treatment, black nightshade pot test; settings: 28th day after treatment, read-out: Growth inhibition rate of black nightshade (%) Measured value
Text: Upland field soil was put into a 1/300,000 ha pot, and seeds of black nightshade (Solanum nigrum L.) were sown. […] On the 28th day after treatment, the state of growth of the black nightshade was visually observed to determine the growth inhibition rate (%).

[12] = dose 100 g/ha, soil treatment, 28th day after treatment
[13] = dose 2.5 g/ha, soil treatment, 28th day after treatment
[14] = soil treatment, 28th day after treatment

Compound `COCCOCc1nc(C(F)(F)F)ccc1C(=O)C1=C(O)C2CCC(C2)C1=O` (centres unmarked) [Bicyclopyrone, 4-hydroxy-3-{2-[(2-methoxyethoxy)methyl]-6-(trifluoromethyl)-3-pyridylcarbonyl}bicyclo[3.2.1]oct-3-en-2-one] has an inhibition at 100 g/ha ([1]; foliar) of 40%, an inhibition at 25 g/ha ([2]; soil) of 25% and an inhibition at 400 g/ha ([3]; soil) of 78%. The inhibition at 25 g/ha ([4]; soil) was 5% and the inhibition at 400 g/ha ([4]; soil) was 25%.
In the case of `COc1cc(OC)nc(NC(=O)NS(=O)(=O)c2ncccc2C(=O)N(C)C)n1` [Nicosulfuron, 2-(4,6-dimethoxypyrimidin-2-ylcarbamoylsulfamoyl)-N,N-dimethylnicotinamide], the inhibition at 30 g/ha ([5]; dose 30 g/ha) is reported as 0%, the inhibition at 10 g/ha ([2]; dose 10 g/ha, soil treatment, 28th day after treatment) is reported as 10% and the inhibition at 30 g/ha ([2]; dose 30 g/ha, soil treatment, 28th day after treatment) is reported as 10%. For the same compound, the inhibition at 100 g/ha [2, 12] was 20%, the inhibition at 100 g/ha [3, 12] was 30% and the inhibition at 30 g/ha ([6]; dose 30 g/ha) was 5%. The inhibition at 30 g/ha ([7]; dose 30 g/ha) was 70%, the inhibition at 10 g/ha ([8]; dose 10 g/ha) was 30% and the inhibition at 30 g/ha ([9]; dose 30 g/ha) was 0%. It also gave an inhibition at 100 g/ha [9] of 0%, an inhibition at 10 g/ha ([4]; dose 10 g/ha, soil treatment, 14th day after treatment) of 0% and an inhibition at 100 g/ha ([10]; dose 100 g/ha) of 80%. The inhibition at 10 g/ha ([11]; dose 10 g/ha) was 20%.
Compound `CCCCCCCC(=O)Oc1c(Br)cc(C#N)cc1Br` [Bromoxynil-octanoate, bromoxynil-octanoate] has an inhibition at 200 g/ha ([1]; dose 200 g/ha, foliar treatment at 5.0 to 5.3-leaf stage, 20th day after treatment) of 5%, an inhibition at 100 g/ha [9] of 0% and an inhibition at 200 g/ha ([9]; dose 200 g/ha) of 0%. For the same compound, the inhibition at 500 g/ha ([9]; dose 500 g/ha) was 0%, the inhibition at 100 g/ha ([11]; dose 100 g/ha) was 0% and the inhibition at 500 g/ha ([11]; dose 500 g/ha) was 0%.
For `COc1nc(C)nc(NC(=O)NS(=O)(=O)c2ccccc2CCC(F)(F)F)n1` [Prosulfuron, 1-(4-methoxy-6-methyl-1,3,5-triazin-2-yl)-3-[2-(3,3,3-trifluoropropyl)phenylsulfonyl]urea], the inhibition at 10 g/ha ([5]; dose 10 g/ha) was 55%, the inhibition at 15 g/ha ([5]; dose 15 g/ha) was 53% and the inhibition at 2.5 g/ha [2, 13] was 20%. The inhibition at 15 g/ha ([2]; dose 15 g/ha, soil treatment, 28th day after treatment) was 20%, the inhibition at 50 g/ha [2, 14] was 40% and the inhibition at 2.5 g/ha [3, 13] was 50%. The inhibition at 10 g/ha ([6]; dose 10 g/ha) was 10%, the inhibition at 15 g/ha ([6]; dose 15 g/ha) was 13% and the inhibition at 15 g/ha ([7]; dose 15 g/ha) was 0%. For the same compound, the inhibition at 50 g/ha ([8]; dose 50 g/ha) was 60%, the inhibition at 2.5 g/ha ([9]; dose 2.5 g/ha) was 78% and the inhibition at 15 g/ha ([9]; dose 15 g/ha) was 93%. The inhibition at 50 g/ha ([4]; dose 50 g/ha, soil treatment, 14th day after treatment) was 50%, the inhibition at 2.5 g/ha ([10]; dose 2.5 g/ha) was 0% and the inhibition at 50 g/ha ([11]; dose 50 g/ha) was 20%.
For `CS(=O)(=O)c1ccc(C(=O)C2C(=O)CCCC2=O)c([N+](=O)[O-])c1` [Mesotrione, 2-(4-mesyl-2-nitrobenzoyl)cyclohexane-1,3-dione], the inhibition at 75 g/ha ([5]; dose 75 g/ha) was 25%, the inhibition at 50 g/ha ([7]; dose 50 g/ha) was 0% and the inhibition at 150 g/ha ([8]; dose 150 g/ha) was 30%. For the same compound, the inhibition at 25 g/ha ([10]; dose 25 g/ha) was 0% and the inhibition at 150 g/ha ([10]; dose 150 g/ha) was 0%.
`COc1c(Cl)ccc(Cl)c1C(=O)O` [Dicamba, dicamba] showed an inhibition at 150 g/ha ([1]; dose 150 g/ha, foliar treatment at 5.0 to 5.3-leaf stage, 20th day after treatment) of 8%, an inhibition at 50 g/ha [2, 14] of 0% and an inhibition at 150 g/ha ([2]; dose 150 g/ha, soil treatment, 28th day after treatment) of 20%. It also gave an inhibition at 400 g/ha ([2]; dose 400 g/ha, soil treatment, 28th day after treatment) of 40%, an inhibition at 100 g/ha ([6]; dose 100 g/ha) of 23% and an inhibition at 150 g/ha ([6]; dose 150 g/ha) of 50%.
